{
  "source": "paper PMC11429909",
  "about": "“Protein Structure Inspired Discovery of a Novel Inducer of Anoikis in Human Melanoma” (Cancers, 2024)",
  "test_system": "human cord blood CD34+ cells",
  "test": "Bone marrow stem cell (hematopoietic trilineage) colony formation assay",
  "format": "cell-based",
  "description": "Human hematopoietic stem cell trilineage colony formation assays were performed as previously described by us. Briefly, human cord blood CD34+ cells (catalog #: 70008.5) were purchased from StemCell Technology Inc. and seeded at 1 × 10^4 cells per 35 mm dish. Cells were cultured in MethoCult™ Express (StemCell Technologies, Inc. (Vancouver, BC, Canada)) semisolid media, per the manufacturer’s instructions, in the presence of compound or vehicle (for controls). Compounds were added at final concentrations matching those used in the initial growth assay screens. At eight days, colonies (i.e., groups of ≥10 cells) were counted. At fourteen days, individual colonies of erythroid burst-forming units (BFU-E), colony-forming unit granulocyte–macrophage (CFU-GM), and colony-forming unit granulocyte, erythrocyte, monocyte, and megakaryocyte (CFU-GEMM) were identified based on the manufacturers’ morphologic characterization criteria. Assays were run in replicates of N = 2, and some were run in replicates of N = 4, as denoted. The mean number of colonies was then determined and expressed as the percentage of controls. The effect of each compound on inhibiting the growth of cancer cells relative to its toxic effects on normal bone marrow was evaluated. This was carried out by comparing colonies at 8 days for each cancer cell line to that of bone marrow. This information was used to calculate the efficacy ratio, as follows: efficacy ratio = (percent of remaining cancer cell colonies)/(percent of remaining bone marrow colonies). This was performed for all compounds at 40 µM and for selected compounds at 5.7 µM, as denoted. For compounds nominated for second-level screens, bone marrow colony formation assays were also repeated. Compounds were added at final concentrations matching those used in the initial screens.\nIn parallel with measuring growth inhibition of cancer cell growth, we measured the effect on human hematopoietic stem cells. Hematopoietic stem cells reside in the bone marrow and are the source of mature cells present in blood. Bone marrow is one of the most sensitive organs in the body to drug toxicity, and this is especially so for anticancer drugs, where bone marrow toxicity can approach 100% [78, 79, 80]. Bone marrow toxicity was measured by performing hematopoietic colony formation assays on human CD34+ stem cells. The stem cell nature of this assay permitted the assessment of trilineage colony formation: granulocytic (white blood cells), erythrocytic (red blood cells), and megakaryocytic (platelets), measured by the formation of CFU-GM, BFU-E, and CFU-GEMM colonies, respectively. Two measurements were taken. First, total colonies at eight days were measured, thereby matching the eight-day timeframe of cancer cell colony formation assays. Second, at fourteen days, individual colonies had differentiated, permitting quantification of each lineage.",
  "note": "Values joined by “and” are separate entries in the source; they are usually repeats but may differ in a detail not shown here. Identical values can stand only once.",
  "data": [
    {"smiles": "c1ccc2sc(-c3ccc(CNc4ccc5nnnn5n4)o3)nc2c1", "note": "[Dxr2-017]", "values": [
      {"measurement": "inhibition of normal bone marrow eight-day colony formation", "setting": "40 µM, 8 days", "value": "30.2 ± 0.7% and 30%"},
      {"measurement": "decrease of BFU-E compared to the control", "setting": "40 µM, 14 days", "value": "97.1 ± 4.1", "unit": "%"},
      {"measurement": "decrease of CFU-GM compared to the control", "setting": "40 µM, 14 days", "value": "49.8 ± 0.0", "unit": "%"},
      {"measurement": "increase of CFU-GEMM compared to the control", "setting": "40 µM, 14 days", "value": "16.1 ± 12.0", "unit": "%"},
      {"measurement": "inhibition of normal bone marrow fourteen-day total colony formation", "setting": "40 µM, 14 days", "value": "42.6 ± 5.8", "unit": "%"},
      {"measurement": "Mean Number of Colonies, % of Control, 14 days", "setting": "normal bone marrow, compound at 40 µM, 14 days, N = 2", "value": "57 % of Control"},
      {"measurement": "Mean Number of Colonies, % of Control, 8 days", "setting": "normal bone marrow, compound at 40 µM, total colonies at 8 days, N = 2", "value": "70 % of Control"}
    ]}
  ]
}
